The NIST ThermoML archive (doi:10.1016/j.jct.2019.04.023)

Assay: xn = mol fraction of the nth substance listed
Conditions: 101 kPa, Liquid; for viscosity: Falling or rolling sphere viscometry; for mass density: Vibrating tube method

CC[N+](CC)=C(N(C)C)N(C)C.O=S(=O)([N-]S(=O)(=O)C(F)(F)F)C(F)(F)F + CCO
Conditions | mass density [kg/m3] | viscosity [mPa·s]
293.15 K, x1 = 0.0995 | 1018.97 | 2.764
293.15 K, x1 = 0.1987 | 1136.2 | 5.261
293.15 K, x1 = 0.299 | 1207.9 | 9.359
293.15 K, x1 = 0.3991 | 1256.11 | 13.81
293.15 K, x1 = 0.5075 | 1293.66 | 20.03
293.15 K, x1 = 0.5956 | 1316.86 | 26.34
293.15 K, x1 = 0.7065 | 1339.41 | 36.42
293.15 K, x1 = 0.7983 | 1353.71 | 47.01
293.15 K, x1 = 0.9106 | 1367.67 | 62.04
293.15 K, x1 = 0.951 | 1372.2 | 70.47
293.15 K, x1 = 1 | 1377.86 | 81.02
298.15 K, x1 = 0.0995 | 1014.27 | 2.453
298.15 K, x1 = 0.1987 | 1131.43 | 4.596
298.15 K, x1 = 0.299 | 1203.13 | 8.052
298.15 K, x1 = 0.3991 | 1251.35 | 11.82
298.15 K, x1 = 0.5075 | 1288.9 | 16.96
298.15 K, x1 = 0.5956 | 1312.11 | 22.12
298.15 K, x1 = 0.7065 | 1334.68 | 30.22
298.15 K, x1 = 0.7983 | 1348.98 | 38.69
298.15 K, x1 = 0.9106 | 1362.96 | 50.44
298.15 K, x1 = 0.951 | 1367.5 | 56.94
298.15 K, x1 = 1 | 1373.16 | 65.01
303.15 K, x1 = 0.0995 | 1009.56 | 2.19
303.15 K, x1 = 0.1987 | 1126.67 | 4.044
303.15 K, x1 = 0.299 | 1198.38 | 6.99
303.15 K, x1 = 0.3991 | 1246.63 | 10.23
303.15 K, x1 = 0.5075 | 1284.19 | 14.53
303.15 K, x1 = 0.5956 | 1307.39 | 18.83
303.15 K, x1 = 0.7065 | 1329.99 | 25.47
303.15 K, x1 = 0.7983 | 1344.3 | 32.25
303.15 K, x1 = 0.9106 | 1358.3 | 41.52
303.15 K, x1 = 0.951 | 1362.85 | 46.62
303.15 K, x1 = 1 | 1368.51 | 52.96
308.15 K, x1 = 0.0995 | 1004.84 | 1.964
308.15 K, x1 = 0.1987 | 1121.91 | 3.583
308.15 K, x1 = 0.299 | 1193.62 | 6.102
308.15 K, x1 = 0.3991 | 1241.9 | 8.914
308.15 K, x1 = 0.5075 | 1279.48 | 12.57
308.15 K, x1 = 0.5956 | 1302.7 | 16.19
308.15 K, x1 = 0.7065 | 1325.33 | 21.69
308.15 K, x1 = 0.7983 | 1339.66 | 27.29
308.15 K, x1 = 0.9106 | 1353.68 | 34.83
308.15 K, x1 = 0.951 | 1358.24 | 38.87
308.15 K, x1 = 1 | 1363.9 | 43.84
313.15 K, x1 = 0.0995 | 1000.1 | 1.773
313.15 K, x1 = 0.1987 | 1117.13 | 3.195
313.15 K, x1 = 0.299 | 1188.87 | 5.364
313.15 K, x1 = 0.3991 | 1237.18 | 7.841
313.15 K, x1 = 0.5075 | 1274.79 | 10.98
313.15 K, x1 = 0.5956 | 1298.03 | 14.08
313.15 K, x1 = 0.7065 | 1320.7 | 18.73
313.15 K, x1 = 0.7983 | 1335.04 | 23.34
313.15 K, x1 = 0.9106 | 1349.09 | 29.46
313.15 K, x1 = 0.951 | 1353.66 | 32.73
313.15 K, x1 = 1 | 1359.32 | 36.79
318.15 K, x1 = 0.0995 | 995.32 | 1.606
318.15 K, x1 = 0.1987 | 1112.33 | 2.864
318.15 K, x1 = 0.299 | 1184.11 | 4.758
318.15 K, x1 = 0.3991 | 1232.46 | 6.927
318.15 K, x1 = 0.5075 | 1270.1 | 9.662
318.15 K, x1 = 0.5956 | 1293.36 | 12.36
318.15 K, x1 = 0.7065 | 1316.07 | 16.3
318.15 K, x1 = 0.7983 | 1330.44 | 20.16
318.15 K, x1 = 0.9106 | 1344.52 | 25.22
318.15 K, x1 = 0.951 | 1349.1 | 27.9
318.15 K, x1 = 1 | 1354.76 | 31.25
323.15 K, x1 = 0.0995 | 990.51 | 1.463
323.15 K, x1 = 0.1987 | 1107.51 | 2.585
323.15 K, x1 = 0.299 | 1179.33 | 4.253
323.15 K, x1 = 0.3991 | 1227.73 | 6.158
323.15 K, x1 = 0.5075 | 1265.41 | 8.555
323.15 K, x1 = 0.5956 | 1288.7 | 10.91
323.15 K, x1 = 0.7065 | 1311.45 | 14.31
323.15 K, x1 = 0.7983 | 1325.84 | 17.59
323.15 K, x1 = 0.9106 | 1339.96 | 21.82
323.15 K, x1 = 0.951 | 1344.55 | 24.03
323.15 K, x1 = 1 | 1350.21 | 26.79

CC[N+](CC)=C(N(C)C)N(C)C.O=S(=O)([N-]S(=O)(=O)C(F)(F)F)C(F)(F)F + CO
Conditions | mass density [kg/m3] | viscosity [mPa·s]
293.15 K, x1 = 0.0999 | 1073.55 | 1.848
293.15 K, x1 = 0.1984 | 1186.61 | 4.046
293.15 K, x1 = 0.3011 | 1249.9 | 7.913
293.15 K, x1 = 0.4008 | 1288.15 | 13.15
293.15 K, x1 = 0.5055 | 1315.68 | 19.75
293.15 K, x1 = 0.5916 | 1332.42 | 26.14
293.15 K, x1 = 0.712 | 1350.19 | 37.44
293.15 K, x1 = 0.7994 | 1360.11 | 46.94
293.15 K, x1 = 0.8995 | 1369.61 | 61.78
293.15 K, x1 = 1 | 1377.86 | 81.02
298.15 K, x1 = 0.0999 | 1068.63 | 1.685
298.15 K, x1 = 0.1984 | 1181.69 | 3.569
298.15 K, x1 = 0.3011 | 1245.05 | 6.875
298.15 K, x1 = 0.4008 | 1283.31 | 11.36
298.15 K, x1 = 0.5055 | 1310.86 | 16.81
298.15 K, x1 = 0.5916 | 1327.63 | 22.03
298.15 K, x1 = 0.712 | 1345.44 | 30.94
298.15 K, x1 = 0.7994 | 1355.37 | 38.51
298.15 K, x1 = 0.8995 | 1364.9 | 49.75
298.15 K, x1 = 1 | 1373.16 | 65.01
303.15 K, x1 = 0.0999 | 1063.71 | 1.538
303.15 K, x1 = 0.1984 | 1176.79 | 3.198
303.15 K, x1 = 0.3011 | 1240.23 | 6.03
303.15 K, x1 = 0.4008 | 1278.51 | 9.842
303.15 K, x1 = 0.5055 | 1306.08 | 14.47
303.15 K, x1 = 0.5916 | 1322.88 | 18.78
303.15 K, x1 = 0.712 | 1340.73 | 26.03
303.15 K, x1 = 0.7994 | 1350.68 | 32.26
303.15 K, x1 = 0.8995 | 1360.23 | 41.13
303.15 K, x1 = 1 | 1368.51 | 52.96
308.15 K, x1 = 0.0999 | 1058.79 | 1.413
308.15 K, x1 = 0.1984 | 1171.9 | 2.949
308.15 K, x1 = 0.3011 | 1235.43 | 5.332
308.15 K, x1 = 0.4008 | 1273.73 | 8.651
308.15 K, x1 = 0.5055 | 1301.33 | 12.59
308.15 K, x1 = 0.5916 | 1318.16 | 16.22
308.15 K, x1 = 0.712 | 1336.05 | 22.2
308.15 K, x1 = 0.7994 | 1346.03 | 27.19
308.15 K, x1 = 0.8995 | 1355.6 | 34.31
308.15 K, x1 = 1 | 1363.9 | 43.84
313.15 K, x1 = 0.0999 | 1053.86 | 1.296
313.15 K, x1 = 0.1984 | 1167.01 | 2.613
313.15 K, x1 = 0.3011 | 1230.63 | 4.749
313.15 K, x1 = 0.4008 | 1268.96 | 7.645
313.15 K, x1 = 0.5055 | 1296.6 | 11.05
313.15 K, x1 = 0.5916 | 1313.46 | 14.12
313.15 K, x1 = 0.712 | 1331.4 | 19.15
313.15 K, x1 = 0.7994 | 1341.4 | 23.25
313.15 K, x1 = 0.8995 | 1351 | 29.05
313.15 K, x1 = 1 | 1359.32 | 36.79
318.15 K, x1 = 0.0999 | 1048.89 | 1.2
318.15 K, x1 = 0.1984 | 1162.1 | 2.362
318.15 K, x1 = 0.3011 | 1225.81 | 4.261
318.15 K, x1 = 0.4008 | 1264.19 | 6.815
318.15 K, x1 = 0.5055 | 1291.87 | 9.775
318.15 K, x1 = 0.5916 | 1308.77 | 12.43
318.15 K, x1 = 0.712 | 1326.77 | 16.69
318.15 K, x1 = 0.7994 | 1336.79 | 20.12
318.15 K, x1 = 0.8995 | 1346.42 | 24.89
318.15 K, x1 = 1 | 1354.76 | 31.25
323.15 K, x1 = 0.0999 | 1043.89 | 1.114
323.15 K, x1 = 0.1984 | 1157.19 | 2.157
323.15 K, x1 = 0.3011 | 1221 | 3.854
323.15 K, x1 = 0.4008 | 1259.42 | 6.126
323.15 K, x1 = 0.5055 | 1287.15 | 8.704
323.15 K, x1 = 0.5916 | 1304.09 | 10.98
323.15 K, x1 = 0.712 | 1322.14 | 14.66
323.15 K, x1 = 0.7994 | 1332.18 | 17.56
323.15 K, x1 = 0.8995 | 1341.85 | 21.56
323.15 K, x1 = 1 | 1350.21 | 26.79
